# Test results as given in patent publication US20040121307A1, “Early detection of cellular differentiation using optophoresis” (Genoptix, Inc, priority 2002, published 2004).
# Where a name gives a salt, the structure may show the parent alone. Read-outs that look alike come from different tables or passages of the source.
# What was measured:
# U937 cells [1] = experiment: Experiment 3: PMA inhibition by bisindolymaleimide, escape velocity; type: cell-based; details: for average escape velocity / escape velocity, Ave.: four hours; for escape velocity, Ave.: no PMA
# From the text: The objective of this experiment was to test the effect of bisindolymaleimide on cells exposed to PMA. Bisindolymaleimide is a Protein Kinase C inhibitor and should block the effect of PMA on U937 cells and their escape velocities. As shown in this and prior experiments, exposure of U937 cells to PMA results in an increase in the escape velocity of the cells. Therefore, it is anticipated that addition of bisindolymaleimide will reduce or eliminate the increase in escape velocity caused by PMA. This has in fact been observed in the data shown below.
# Bisindolymaleimide was tested at two concentrations: 200 ng/ml and 50 ng/ml. Samples not treated with bisindolymaleimide received an equivalent amount of the carrier, MeOH, as a control. […] The concentration of PMA tested was 10 ng/ml. Samples not receiving PMA received DMSO.
# Once the flasks were prepared, they were incubated at 37° C. 5% CO2 for four hours. At the four hour timepoint, 300 μl of cells were removed from each flask and pelleted at 5000 rpm for 5 minutes. The cells were then resuspended in 6 ml PBS/1% BSA and 60 μl trypan blue.
# HL-60 cells = experiment: Cellular differentiation of HL-60, fast scan time course; type: cell-based; details: 1% DMSO
# Experimental: (§1) Fast scan analysis was also performed on HL-60 cells that were treated with PMA and DMSO. A time course evaluation of PMA treated HL-60 cells was performed with fast scan data taken at 16 hours, 24 hours, 40 hours, and 72 hours post-treatment with 400 ng/ml PMA. A control sample of HL-60 cells was also tested using EtOH as the vehicle for purposes of comparing the differentiated cells with the undifferentiated HL-60 cells. The PMA-treated and control cells were harvested and trypsinized. The samples were then resuspended in PBS/1% BSA. A set of samples was also obtained and left as pellets at 4° C. for subsequent FACS analysis.
# A time course evaluation of DMSO treated HL-60 cells was performed with fast scan data taken at 16 hours, 24 hours, 40 hours, and 70 hours post-treatment with 1% DMSO. A control sample of HL-60 cells was also tested for purposes of comparing the differentiated cells with the undifferentiated HL-60 cells. The DMSO-treated and control cells were then harvested and resuspended in PBS/1% BSA. A set of samples was also obtained and left as pellets at 4° C. for subsequent FACS analysis.
# [2] = tested on: CD11b expression in HL-60 cells; experiment: FACS CD11b expression profile; type: cell-based; details: 1% DMSO
# Experimental: as §1
# FIG. 145 illustrates a histogram of the travel distance of the control cells as well as the PMA-treated cells at 16 hours, 24 hours, 40 hours, and 72 hours post-treatment. FIG. 146 illustrates the mean travel distances of the control cells as well as the PMA-treated cells at 16 hours, 24 hours, 40 hours, and 72 hours post-treatment. FIG. 147 illustrates the FACS CD11b expression profile in PMA-treated HL-60 cells as well as the control. CD11b is a known marker of cellular differentiation and is expressed on the surface of differentiating cells. […] The data illustrate that Optophoretic analysis can be used as an assay for the detection and quantification of cellular differentiation. […]
# [3] = tested on: wild type Staphylococcus aureus; experiment: Bacterial screen for drug sensitivity, escape velocity, sensitive strain; type: cell-based
# Experimental: (§2) In this experiment, escape velocity was measured over time in wild type Staphylococcus aureus and an Erythromycin-resistant strain. 5 μg/ml of Erythromycin was applied to both the wild type Staphylococcus aureus and an Erythromycin-resistant strain. Escape velocity measurements were taken at time zero, 30 minutes post-treatment, and 3 hours post-treatment. […] In this experiment, however, escape velocity measurements were made at time zero, 30 minutes post-treatment, and 1 hour post-treatment, and 2 hours post-treatment. A reduction in escape velocity of the Erythromycin-sensitive strain can be seen at 1 hour post-treatment.
# [4] = tested on: Erythromycin-resistant strain; experiment: Bacterial screen for drug sensitivity, escape velocity, resistant strain; type: cell-based, Staphylococcus aureus; details: 5 μg/ml Erythromycin (FIG. 80)
# Experimental: as §2
# [5] = tested on: K562, BV-173, EM-3, and U-937 cells; experiment: Experiment 8: effect of Gleevec, escape velocity; type: cell-based; details: 72 hours after exposure, all four cell types
# From the text: The U-937 cells have no copies of the gene. The K-562 line of cells has, on average, one copy of the gene per cell. The BV-173line of cells has, on average, three copies of the gene per cell. The EM-3 cell line has, on average, five copies of the gene per cell. […] FIG. 44 illustrates the measured escape velocities (average) for each of the four cell types. […] In addition, the decrease in escape velocity for the Gleevec-treated cells was more pronounced in those cell lines that had higher copy numbers of the Bcr-Abl gene.
# EM-3 cells = experiment: Experiments 9 and 9.1: Gleevec and other kinase inhibitors, fast scan; type: cell-based; details: for Mean Distance: 1 μM, 48 hours of exposure
# Experimental: A second group of cells were treated with 1 μM Src-Family Protein Tyrosine Kinase Inhibitor Set, obtained from CALBIOCHEM (Cat. No. 567816). The Src Set contained four inhibitors, namely, Genistein, Herbimycin A, Streptomyces sp., PP2, and PP3. A third group of cells were treated with 1 μM Staurosporine. A fourth group of cells were treated with 1 μM TK Inhibitor Set, also obtained from CALBIOCHEM (Cat. No. 657021). The TK Inhibitor Set contained five inhibitors, Genistein, PP2, AG490, AG1296, and AG1478. […] Measurements were taken after 48 hours of exposure.
# Fast scan analysis was performed after 48 hours of incubation.
# Jurkat cells = experiment: Experiment 5: TNF-α effect, escape velocity; type: cell-based; details: TNF inhibitor added with TNF (FIG. 36)
# Experimental: After 48 hours of incubation, the cells were removed and centrifuged for 5 minutes at 5,000 rpm. Then the cells were resuspended in PBS/1% BSA and trypan blue. A higher power setting, 140 mW instead of 100 mW, was used for this experiment. The escape velocities were measured as follows:
# In this experiment Leflunomide and Silymarin were added with TNF to see if the anticipated increase in escape velocity measurements could be counteracted by the presence of the TNF inhibitors.
# U937 cells [6] = tested on: U937 cells
# Experimental: This experiment is designed to compare the effects of two concentrations of sodium salicylate on U937 cells. Sodium salicylate was prepared at two concentrations: 20 mM and 5 mM. The escape velocities of the cells was tested at 5 hours, 24 hours and 47 hours. At each timepoint, 30 μl of sample was pelleted at 5,000 rpm for 5 minutes and then resuspended in PBS/1% BSA and trypan blue.
# Chang liver cells [7] = experiment: Experiment 10: toxicity of ketoconazole, escape velocity; type: cell-based, human; details: 1 μm ketoconazole, 1.5 hours of treatment
# Experimental: (§3) This experiment is designed to test the effect of ketoconazole on human liver cells. Ketoconazole induces toxicity in liver cells. The sample cells were Chang liver cells. The concentration of ketoconazole used to treat the cells was 1 μm. Escape velocity and fast scan protocols were applied to determine the impact, if any, of ketoconazole treatment. […] Consequently, Optophoresis was able to detect an effect on the escape velocity of treated cells within 1.5 hours of exposure to ketoconazole. FIGS. 44-45 show the fast scan results of ketoconazole-treated Chang liver cells. […] The ketoconazole-treated cells generally traveled a smaller distance as compared to the non-treated control.
# Chang liver cells [8] = type: cell-based; details: human, 1 μm
# Experimental: as §3
# CCRF-CEM cells = experiment: Experiment 14, fifth experiment: topotecan on sensitive cell line, escape velocity; type: cell-based; details: 10 μM topotecan, 6 hours
# Experimental: In a fifth experiment, two different cell lines obtained from ATCC which have varying degrees of sensitivity to topoisomerase I inhibitors such as camptothecin and topotecan were subject to Optophoretic analysis. A group of cells from a parental cell line CCRF-CEM that is sensitive to camptothecin and topotecan were incubated for 6 hours with 10 μM topotecan. Another group of cells from the cell line CEM/C2, which are 970-fold less sensitive to camptothecin and topotecan, were also incubated for 6 hours with 10 μM topotecan. Control cells from both the CCRF-CEM and CEM/C2 cell lines were also tested. The cells were incubated for six hours and prepared for testing in accordance with the procedures described above in the prior experiments. The cells were then loaded onto a cover slip containing agarose that was spin-coated onto the surface thereof. Escape velocity measurements were then taken using a 100 mW laser with a diameter of 28 pixels. […] Optophoretic analysis was thus able to score cross-resistance of camptothecin-resistant cell lines to topotecan, an analog of camptothecin.
# U937 cells [9] = tested on: U937 cells; remark: listed apart in the source
# Experimental: Both groups of cells were incubated with compound in 0.1% DMSO (or simply 0.1% DMSO in the case of the control) for four hours. At the end of the incubation period, the cells were centrifuged down for 3-5 minutes at 5000 rpm in a Model V microcentrifuge (VWR scientific). The supernatant was then aspirated and the pellet resuspended in 1 ml PBS/1% BSA buffer plus 1:10 trypan blue. Escape velocity measurements were then taken of the cells.
# The different groups of cells were incubated for various time periods (3, 6, 9, and 24 hours) and escape velocity measurements were made. At the end of the incubation period, the cells were centrifuged down for five minutes at 5000 rpm. The supernatant was then removed and the pellet resuspended in 1 ml PBS/1% BSA buffer plus 1:10 trypan blue. The cells were then loaded onto a cover slip containing agarose that was spin-coated onto the surface thereof.
# The cells were incubated for four hours and prepped for testing in accordance with the procedures described above in the prior experiments. The cells were then loaded onto a cover slip containing agarose that was spin-coated onto the surface thereof. Escape velocity measurements were then taken using a 100 mW laser with a diameter of 21.5 pixels.
# The groups of cells were incubated (or simply 0.1% DMSO in the case of the control) for six hours. At the end of the incubation period, the cells were centrifuged down for five minutes at 5000 rpm. The supernatant was then removed and the pellet resuspended in 1 ml PBS/1% BSA buffer plus 1:10 trypan blue. The cells were then loaded onto a cover slip containing agarose that was spin-coated onto the surface thereof. Escape velocity measurements were then taken using a 100 mW laser with a diameter of 28 pixels. Escape velocity measurements were then taken of the cells.
# The groups of cells were incubated for six hours with compound (or simply DMSO in the case of the control). At the end of the incubation period, the cells were centrifuged down for five minutes at 5000 rpm. […]
# CEM/C2 cell line = details: cell lines obtained from ATCC; cited from earlier work
smiles,measurement,setting,value
CN(C)CCCn1cc(C2=C(c3c[nH]c4ccccc34)C(=O)NC2=O)c2ccccc21 [Bisindolymalemide],average escape velocity,U937 cells [1]; 50 ng/ml bisindolymaleimide + 10 ng/ml PMA,15.1 μm/sec
same,"escape velocity, Ave.",U937 cells [1]; 50 ng/ml bisindolymaleimide,13.9
same,effect on the optophoretic shift in escape velocity caused by PMA,U937 cells [1]; 200 ng/ml BIMI for 30 minutes followed by 10 ng/ml PMA (FIG. 33),blocked the optophoretic shift in escape velocity
same,average escape velocity,U937 cells [1]; 200 ng/ml bisindolymaleimide + 10 ng/ml PMA,14.5 μm/sec
same,"escape velocity, Ave.",U937 cells [1]; 200 ng/ml bisindolymaleimide,14.0
"C[S+](C)[O-] [DMSO, dimethylsulfoxide]",course of mean travel distance,HL-60 cells; 16 to 72 hours (FIG. 149),mean travel distance progressively decreased as time elapsed
same,time after treatment at which a noticeable decrease in mean travel distance was detected,HL-60 cells; fast scan,≤ 16 h
same,time after treatment at which FACS detected a change in CD11b expression levels,[2],40 h
CC[C@H]1OC(=O)[C@H](C)[C@@H](O[C@H]2C[C@@](C)(OC)[C@@H](O)[C@H](C)O2)[C@H](C)[C@@H](O[C@@H]2O[C@H](C)C[C@H](N(C)C)[C@H]2O)[C@](C)(O)C[C@@H](C)C(=O)[C@H](C)[C@@H](O)[C@]1(C)O [Erythromycin],time at which a reduction in escape velocity can be seen,[3]; 5 μg/ml Erythromycin (FIG. 81),1 h
same,change of escape velocity over time,"[3]; 5 μg/ml Erythromycin, time zero, 30 minutes, 3 hours post-treatment (FIG. 80)",escape velocity of the Erythromycin-sensitive strain decreases
same,escape velocity after treatment,[4],same escape velocity as the untreated Erythromycin-sensitive strain
"Cc1ccc(NC(=O)c2ccc(CN3CCN(C)CC3)cc2)cc1Nc1nccc(-c2cccnc2)n1 [Gleevec, imatinib mesylate]",escape velocity as compared to non-treated cells,[5],significantly lower escape velocity
same,Mean Distance,EM-3 cells,13.199 μm
same,response of mean travel distance to varying concentration,"EM-3 cells; 0.06 to 4 μM Gleevec, 48 hours",dose-dependent response
Cc1oncc1C(=O)Nc1ccc(C(F)(F)F)cc1 [Leflunomide],effect on the increase in escape velocity caused by TNF,Jurkat cells,mitigate the increase in escape velocity caused by TNF
"O=C([O-])c1ccccc1O.[Na+] [Sodium Salicylate, sodium salicylate]",shift in escape velocities,"U937 cells [6]; 5 mM and 20 mM salicylic acid, 5 and 24 hours (FIG. 37)",slight but statistically significant shift in escape velocities
same,"escape velocity, Ave.","U937 cells [6]; 5 mM sodium salicylate, 5 hours",14.1
same,"escape velocity, Ave.","U937 cells [6]; 5 mM sodium salicylate, 24 hours",15.2
same,"escape velocity, Ave.","U937 cells [6]; 5 mM sodium salicylate, 47 hours",13.7
same,"escape velocity, Ave.","U937 cells [6]; 20 mM sodium salicylate, 5 hours",13.3
same,"escape velocity, Ave.","U937 cells [6]; 20 mM sodium salicylate, 24 hours",16.0
same,cell viability (trypan blue),"U937 cells [6]; 20 mM, 47 hours",all cells were dead
CN[C@@H]1C[C@H]2O[C@@](C)([C@@H]1OC)n1c3ccccc3c3c4c(c5c6ccccc6n2c5c31)C(=O)NC4 [Staurosporine],Mean Distance,EM-3 cells,9.250 μm
CC(=O)N1CCN(c2ccc(OCC3COC(Cn4ccnc4)(c4ccc(Cl)cc4Cl)O3)cc2)CC1 (stereo not drawn) [ketoconazole],escape velocity versus control,Chang liver cells [7],marked decrease in escape velocity
same,mean travel distance,Chang liver cells [8],20.97 μm
CC[C@@]1(O)C(=O)OCc2c1cc1n(c2=O)Cc2cc3c(CN(C)C)c(O)ccc3nc2-1 [topotecan],decrease in escape velocity,CCRF-CEM cells,larger decrease in escape velocity as compared to the CEM/C2 cells
same,shift in escape velocity,"U937 cells [9]; 4 μg/ml, four hours (FIG. 54)",larger shift in escape velocity as compared to the camptothecin-treated cells
same,cell death,"U937 cells [9]; human, 24 h, 10 μM",virtually all of the treated U937 cells were dead
same,potency by escape velocity concentration curves,"U937 cells [9]; six hours, FIG. 65 versus FIG. 70",higher potency of topotecan as compared to camptothecin
same,fold less sensitive than parental CCRF-CEM,CEM/C2 cell line,970 fold
